# Experiment: Human HepG2 cell viability assay in 384 well format
# Assay type: toxicity, cell-based
# Set-up: dose 125 nL, time 70.5 hour; cytotoxicity at 70.5 h: concentration not given beside the values
# Settings: HepG2 cells, read-out: Inhibition
row,SMILES,cytotoxicity at 70.5 h [%]
1,Cc1ccc(C(=O)O)cc1S(=O)(=O)Nc1nn(-c2ccccc2)cc1C,-0.199
2,CC1CN(C)c2ccccc2CN1C(=O)c1ccc[nH]1 (stereo not given),0.885
3,OCC1CCCN1c1cc(NCCc2c[nH]c3ccccc23)ncn1 (stereo not given),1.16
4,CC(C)c1nc(CN(C)C2CCN(CC(F)(F)F)C2)no1 (stereo not given),1.98
5,CS(=O)(=O)c1ccc(CNCC2CCN(CCO)CC2)cc1,18.2
6,CC1CN(C)c2ccccc2CN1C(=O)c1ccncc1 (stereo not given),0.805
7,COc1ccc(C2CCCN2C(=O)CCNc2ncccn2)cc1 (stereo not given),-5.82
8,Cn1nnc2cc(C(=O)N3CCCC3Cc3ccccc3)ccc21 (stereo not given),-1.35
9,Cc1cccc(CCC(=O)N2CCOCC2c2c(C)n[nH]c2C)c1 (stereo not given),17.3
10,CCN1CC(C(=O)NCc2ccnc(-n3ccnc3C)c2)CC1=O (stereo not given),-1.78
11,CCn1ccnc1CN1CCN(Cc2ccccn2)CC1C (stereo not given),9.97
12,CNc1cc(N2CCCC2CNCc2ccccn2)ncn1 (stereo not given),14.8
13,NC(=O)c1cc(NC(=O)N2CCCCCC2)ccc1F,35.1
14,CCN(CC)C(CNS(=O)(=O)c1ccc(C(=O)NC)cc1)c1ccco1 (stereo not given),-8.07
15,Cc1cc(C)n(CC2CN(Cc3cccc(C(N)=O)c3)CCO2)n1 (stereo not given),6.91
16,O=C(NCCCOCC1CC1)Nc1cccnc1N1CCOCC1,-5.01
17,Cc1nn(CC(=O)N2CCCCC2Cn2cccn2)c(C)c1Cl (stereo not given),-0.411
18,CC(Oc1ccccc1C(F)(F)F)C(=O)NCC(N)=O (stereo not given),-1.2
19,Cc1cccc(N2CCN(CCCNC(=O)c3nccn3C)CC2)c1,-3.1
20,Cc1nc(C)n(CC2CN(Cc3cccc(C(N)=O)c3)CCO2)n1 (stereo not given),-4.7
21,COc1c(C2CCCN2C(=O)c2cc(Cl)c[nH]2)c(C)nn1C (stereo not given),-0.121
22,NC(=O)c1ccc(NC(=O)CCN2CCCC(N3CCCC3)C2)cc1 (stereo not given),12.4
23,Cc1cc(NC(=O)N2CCN(c3nc(C)c(C)s3)CC2)no1,21.7
24,CC(=O)N1CCCC1c1nnc2n1CCCCC2 (stereo not given),2.96
25,Cn1ccnc1CNC(=O)N1CCCC(Cc2nccn2C)C1 (stereo not given),2.69
26,Cc1nn(C)c(C)c1CCC(=O)N1CCCC1Cn1cccn1 (stereo not given),-2.38
27,Cc1cc(C)n(C2CCCN(C(=O)c3ccc(F)cc3F)C2)n1 (stereo not given),-0.896

row,SMILES,cytotoxicity at 70.5 h [%]
1,Cc1nc(C)n(C2CCCN(C(=O)Cc3cccnc3)C2)n1 (stereo not given),3.66
2,Cc1nn(C)c(C)c1C1CCCN1C(=O)c1ccc(Cl)o1 (stereo not given),3.22
3,O=C(Nc1ccccc1)N1C[C@H]2C[C@H](C(=O)N3CCCC3)[C@@H](C1)O2,15.5
4,CC1CC2(CCN(C(=O)c3c[nH]cn3)CC2)c2ccccc21 (stereo not given),-8.21
5,O=c1cc(CN2CCCC2)nc2n1CCCN(S(=O)(=O)C1CC1)C2,-1.37
6,Cc1cccc(N2CCOCC3(C2)CN(c2cccnc2)C(=O)CO3)n1 (stereo not given),-4.82
7,CCc1ccc(NC(=O)N2C[C@H]3C[C@H](C(=O)NC4CCC4)[C@@H](C2)O3)cc1,8.99
8,O=C(C1CCOC1)N1CC2(CCN(c3ccccc3)C2)C1 (stereo not given),-0.441
9,CCS(=O)(=O)N1CCCn2c(nc(CN3CCCC3)cc2=O)C1,-7.43
10,COc1cc(N2CCC3(CC2)OCC(=O)NC3C)ncn1 (stereo not given),-4.57
11,Cn1cc(CN2CCC[C@]3(C[C@H](Oc4ccccn4)CO3)C2)cn1,-7.75
12,Cn1ccnc1CN1CCc2c(COCC3CC3)nn(C)c2C1,-6.3
13,COc1cccc(-c2ccc3nc(C4CCN(C(C)=O)CC4)nn3c2)c1,-4.61
14,CC(=O)N1CCC(c2nc3ccc(-c4cccc(F)c4)cn3n2)CC1,-9.34
15,Cc1nc(CN2CCC23CCN(C(=O)c2ccco2)CC3)cs1,-1.36
16,CCO[C@@H]1CO[C@@]2(CCCN(S(=O)(=O)c3ccccc3)C2)C1,-8.47
17,O=S(=O)(c1ccccc1)N1CCC[C@]2(C[C@H](OCC3CC3)CO2)C1,-9.34
18,CCOC1COC2(CCN(S(=O)(=O)c3cccc(C)c3)CC2)C1 (stereo not given),-6.02
19,Cn1ccc(-c2cc(C(=O)N3CCOCC3)c3ccccn23)n1,3.83
20,COCCNC(=O)[C@H]1C[C@@H]2CCN(Cc3ccoc3)C[C@H]2O1,-15.5
21,CN(C)C(=O)CC1CC2(CCNCC2)c2cc(F)ccc21 (stereo not given),-8.47
22,COCC(=O)N1CCO[C@H]2[C@H](OC)CC[C@@H]21,-16.2
23,Cn1cnc(-c2cc(C(=O)N3CCOCC3)c3ccccn23)c1,-31.4
24,O=C(C1=CCCC1)N1C[C@@H]2COC[C@]2(COc2cccnc2)C1,-5.78
25,Cc1ccc(C(=O)N2C[C@@H]3COC[C@]3(COc3cccnc3)C2)cn1,12.6
26,CC(=O)N1CCO[C@@H]2CN(C(=O)c3cc(C)oc3C)CC[C@@H]2C1,13
27,COc1ccc(CN2CCn3c(CNS(C)(=O)=O)nnc3C2)cc1,24.4

row,SMILES,cytotoxicity at 70.5 h [%]
1,Cn1cc(CN2CC[C@H](O)[C@@H]2Cc2ccncc2)cn1,26
2,Cc1cc(C(=O)N2CC[C@@H]3CN(S(C)(=O)=O)CCO[C@@H]3C2)c(C)o1,-5.13
3,O=S(=O)(c1ccccc1)N1CCC2(CCCN2CC2CCCC2)C1 (stereo not given),-5.67
4,Cn1ncc2c1C(COCC1CC1)CN(Cc1ccc(F)cc1)C2 (stereo not given),25.3
5,CCS(=O)(=O)NC[C@]12COC[C@H]1CN(Cc1cc(C)on1)C2,-6.04
6,O=C(NCC1CC1)[C@H]1C[C@@H]2CCN(Cc3nccs3)C[C@@H]2O1,-2.02
7,O=C(NCc1cncc2c1CCN(CC1CCOC1)C2)c1ccco1 (stereo not given),19.6
8,Fc1ccc2c(c1)C1(CCNCC1)CC2NC1CC1 (stereo not given),14.1
9,c1ccc(OC[C@@H]2CCC[C@@]23CNCCO3)nc1,10.8
10,c1cc(COC[C@@H]2CCC[C@@]23CNCCO3)ccn1,8.32
11,Cc1ccc(CN2CCc3c(COCC4CC4)nn(C)c3C2)s1,21.5
12,COc1ncccc1CN1C[C@H]2CCN(c3ncccn3)C[C@H]2C1,1.43
13,Cc1cccc(N2CCOCC3(C2)CN(c2ccccc2)C(=O)CO3)n1 (stereo not given),-4.51
14,c1coc(CN2CCO[C@H]3[C@H](OCC4CCCC4)CC[C@@H]32)c1,11.8
15,CN1CCC(c2nc3ccc(-c4cccc(F)c4)cn3n2)CC1,-6.5
16,O=C(NCc1cccnc1)c1nc2c(s1)CCCN2C(=O)C1CC1,-3.72
17,O=C1NCCN(CC2CC2)C12CCN(Cc1ccccc1)CC2,13.9
18,COCC1CN(Cc2ccoc2)Cc2nn(C)cc21 (stereo not given),-2.22
19,CCC1=N[C@@]2(CC[C@@H]3CN(Cc4ccc(Cl)cc4)C[C@@H]32)C(=O)N1,-3.73
20,COCC(=O)NCc1cc(=O)n2c(n1)CN(CC1CCOC1)CCC2 (stereo not given),15.2
21,CN(C)CCO[C@@H]1CC[C@H]2[C@H]1OCCN2C(=O)COc1ccccc1,-16.3
22,O=C(Cc1ccccc1F)N1C[C@@H]2COC[C@]2(COc2cccnc2)C1,-11.5
23,CC1=N[C@@]2(CC[C@@H]3CNC[C@@H]32)C(=O)N1CC(C)C,31.4
24,Cc1ccc(CN2CC[C@H]3OCC[C@@H](C(=O)NC4CC4)[C@@H]3C2)o1,18.8
25,CNC(=O)C1Cn2ccnc2C2(CCN(Cc3cccc(C)n3)CC2)O1 (stereo not given),0.339
26,Cc1nnc(N2CC[C@H]3C[C@H](C(=O)N4CCOCC4)O[C@H]3C2)s1,-2.02
27,O=C(Cc1ccc(F)cc1)N1CCn2cc(Cn3cccn3)nc2C1,-1.99

row,SMILES,cytotoxicity at 70.5 h [%]
1,Cc1ccc(N2CC[C@H]3C[C@@H](C(=O)N4CCOCC4)O[C@H]3C2)nn1,-0.412
2,COCCN1CCC2(CC1)CN(C(=O)N(C)C)c1ccc(C)cc12,3.45
3,O=S(=O)(c1cccs1)N1CC[C@H](O)[C@@H]1Cc1ccncc1,-1.15
4,CN(C)C(=O)[C@@H]1C[C@@H]2CCN(Cc3nccs3)C[C@@H]2O1,-6.01
5,Cc1noc([C@H]2C[C@H]3OCC[C@H]3N(Cc3ccc4c(c3)OCO4)C2)n1,-11.8
6,CN1CC(=O)N(c2cccc(F)c2)CC12CCN(S(C)(=O)=O)C2 (stereo not given),-10.7
7,Cn1cc(CN2CCC[C@]3(C[C@@H](Oc4ccccn4)CO3)C2)cn1,-6.69
8,CCC(=O)N1CC[C@H]2[C@H](C[C@@H](CN3CCCC3)N2c2nccs2)C1,-3.2
9,CC(=O)N1CC[C@H]2[C@H](C[C@@H](CN3CCCC3)N2c2nccs2)C1,-7.72
10,CS(=O)(=O)N1Cc2ccnn2CC(C(=O)NCc2cccnc2)C1 (stereo not given),20.5
11,Cc1ccc(CC(=O)N2CC[C@@H]3CN(CCN(C)C)CCO[C@@H]3C2)cc1,-8.7
12,c1cc(CO[C@@H]2CC[C@H]3[C@H]2OCCN3CC2CCOCC2)ccn1,21.5
13,COc1ccc(CN2C[C@@H](OCc3ccccn3)[C@H]3COC[C@H]32)cc1,-23.2
14,c1cc(CO[C@@H]2CC[C@H]3[C@H]2OCCN3Cc2ccoc2)ccn1,-14.9
15,c1cncc(N2CCCC3(CN(Cc4cccs4)CCO3)C2)c1 (stereo not given),9.99
16,O=C(NCc1ccccn1)[C@@H]1COC[C@H]2CN(C3CCOCC3)C[C@H]21,2.68
17,O=C(NCc1ccccn1)[C@@H]1CCO[C@@H]2CCN(Cc3ccoc3)C[C@H]21,-1.45
18,O=C(c1ccco1)N1C[C@@H]2OCCN(CCN3CCCC3)[C@@H]2C1,-11.2
19,c1cncc(N2CCOCC3(CCCN(Cc4cccs4)C3)C2)c1 (stereo not given),0.445
20,Cc1cc(CN2C[C@@H]3COC[C@]3(CN(C)C)C2)no1,-6.11
21,Cc1ccc2c(c1)C1(CCNCC1)CN2C(=O)CN(C)C,4.93
22,CCN(C)c1ncnc2c1CCN(Cc1csc(C)n1)CC2,-12.4
23,CN1CC[C@H]2[C@H](C[C@@H](CN3CCCC3)N2c2nccs2)C1,-3.73
24,COc1ccc(CN2CCn3cc(CN4CCN(C)CC4)nc3C2)cc1,-7.16
